Results published in patent publication US9556179B2 (BRISTOL-MYERS SQUIBB COMPANY, priority 2012, dated 2017).

Assays:
CK1δ = CK1δ (Homo sapiens (Human), UniProt P48730); assay: CK1δ kinase assay (Caliper LABCHIP electrophoretic separation of fluoresceinated peptide substrate and product); assay type: biochemical; settings: 200 pM enzyme, 50 μM ATP, 22 hours at room temperature
Summary of the method: (§1)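 Reactions ran 22 hours at room temperature and were stopped with EDTA. Phosphorylated product and unphosphorylated substrate were then separated electrophoretically. Compounds were tested at eleven concentrations, and IC50 values came from non-linear regression.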

CK1ε = CK1ε (Homo sapiens (Human), UniProt P49674); assay: CK1ε kinase assay (Caliper LABCHIP electrophoretic separation of fluoresceinated peptide substrate and product); assay type: biochemical; settings: 200 pM enzyme, 50 μM ATP, 22 hours at room temperature
Sequence of CK1ε (P49674 whole entry): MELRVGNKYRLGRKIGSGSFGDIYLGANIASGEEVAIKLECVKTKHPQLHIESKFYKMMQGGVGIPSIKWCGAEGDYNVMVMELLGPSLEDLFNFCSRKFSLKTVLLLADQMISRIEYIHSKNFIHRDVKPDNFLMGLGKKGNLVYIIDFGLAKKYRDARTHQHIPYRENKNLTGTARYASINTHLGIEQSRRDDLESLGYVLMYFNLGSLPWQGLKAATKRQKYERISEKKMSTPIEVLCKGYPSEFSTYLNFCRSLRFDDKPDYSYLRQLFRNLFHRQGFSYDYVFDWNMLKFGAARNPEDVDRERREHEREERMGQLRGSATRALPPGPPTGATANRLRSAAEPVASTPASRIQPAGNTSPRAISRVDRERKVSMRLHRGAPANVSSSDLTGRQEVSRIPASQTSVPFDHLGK
Summary of the method: as §1

Sequence of CK1δ (P48730 whole entry): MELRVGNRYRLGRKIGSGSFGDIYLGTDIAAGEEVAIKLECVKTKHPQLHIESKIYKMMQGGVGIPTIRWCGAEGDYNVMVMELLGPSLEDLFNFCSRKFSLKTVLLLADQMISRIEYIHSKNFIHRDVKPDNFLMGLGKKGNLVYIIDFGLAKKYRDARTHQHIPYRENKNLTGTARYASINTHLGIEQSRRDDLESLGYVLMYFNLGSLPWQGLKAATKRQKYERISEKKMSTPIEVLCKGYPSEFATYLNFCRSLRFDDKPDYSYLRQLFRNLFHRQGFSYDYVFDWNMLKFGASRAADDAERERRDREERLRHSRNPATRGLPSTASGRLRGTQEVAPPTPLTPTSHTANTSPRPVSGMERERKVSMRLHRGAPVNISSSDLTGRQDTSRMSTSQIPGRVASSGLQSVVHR

Compound	IC50 (CK1δ) [nM]	IC50 (CK1ε) [nM]
O=C(Nc1cn2nc(-c3c(-c4ccc(F)cc4)ncn3C3CCN(C(=O)OCC4CC4(F)F)CC3)ccc2n1)c1ccnc(F)c1 (stereo not drawn) [Compound 82, (2,2-difluorocyclopropyl)methyl 4-(5-(2-(2-fluoroisonicotinamido)imidazo[1,2-b]pyridazin-6-yl)-4-(4-fluorophenyl)-1H-imidazol-1-yl)piperidine-1-carboxylate]	0.247	1.59
COC(=O)N1CCC(n2cnc(-c3ccc(F)cc3)c2-c2ccc3nc(NC(=O)c4ccnc(F)c4)cn3n2)CC1 [Compound 84, methyl 4-(5-(2-(2-fluoroisonicotinamido)imidazo[1,2-b]pyridazin-6-yl)-4-(4-fluorophenyl)-1H-imidazol-1-yl)piperidine-1-carboxylate]	0.179	0.967
O=C(Nc1cn2nc(-c3c(-c4ccc(F)cc4)ncn3C3CCN(C(=O)OCC(F)(F)F)CC3)ccc2n1)c1ccnc(F)c1 [Compound 85, 2,2,2-trifluoroethyl 4-(5-(2-(2-fluoroisonicotinamido)imidazo[1,2-b]pyridazin-6-yl)-4-(4-fluorophenyl)-1H-imidazol-1-yl)piperidine-1-carboxylate]	0.309	2.34
O=C(Nc1cn2nc(-c3c(-c4ccc(F)cc4)ncn3C3CCN(C(=O)OCc4ccon4)CC3)ccc2n1)c1ccnc(F)c1 [Compound 86, isoxazol-3-ylmethyl 4-(5-(2-(2-fluoroisonicotinamido)imidazo[1,2-b]pyridazin-6-yl)-4-(4-fluorophenyl)-1H-imidazol-1-yl)piperidine-1-carboxylate]	0.286	0.851
O=C(Nc1cn2nc(-c3c(-c4ccc(F)cc4)ncn3C3CCNCC3)ccc2n1)c1cc(F)nc(F)c1 [Compound 87, 2,6-difluoro-N-(6-(4-(4-fluorophenyl)-1-(piperidin-4-yl)-1H-imidazol-5-yl)imidazo[1,2-b]pyridazin-2-yl)isonicotinamide]	0.402	1.05
O=C(Nc1cn2nc(-c3c(-c4ccc(F)cc4)ncn3C3CCN(CCCF)CC3)ccc2n1)c1cc(F)nc(F)c1 [Compound 88, 2,6-difluoro-N-(6-(4-(4-fluorophenyl)-1-(1-(3-fluoropropyl)piperidin-4-yl)-1H-imidazol-5-yl)imidazo[1,2-b]pyridazin-2-yl)isonicotinamide]	0.38	2.56
NC(=O)CN1CCC(n2cnc(-c3ccc(F)cc3)c2-c2ccc3nc(NC(=O)c4cc(F)nc(F)c4)cn3n2)CC1 [Compound 89, N-(6-(1-(1-(2-amino-2-oxoethyl)piperidin-4-yl)-4-(4-fluorophenyl)-1H-imidazol-5-yl)imidazo[1,2-b]pyridazin-2-yl)-2,6-difluoroisonicotinamide]	0.146	1.09
O=C(Nc1cn2nc(-c3c(-c4ccc(F)cc4)ncn3C3CCN(C[C@@H](O)C(F)(F)F)CC3)ccc2n1)c1cc(F)nc(F)c1 [Compound 90, (R)-2,6-difluoro-N-(6-(4-(4-fluorophenyl)-1-(1-(3,3,3-trifluoro-2-hydroxypropyl)piperidin-4-yl)-1H-imidazol-5-yl)imidazo[1,2-b]pyridazin-2-yl)isonicotinamide]	0.65	5.68
O=C(Nc1cn2nc(-c3c(-c4ccc(F)cc4)ncn3C3CCN(C[C@H](O)C(F)(F)F)CC3)ccc2n1)c1cc(F)nc(F)c1 [Compound 91, (S)-2,6-difluoro-N-(6-(4-(4-fluorophenyl)-1-(1-(3,3,3-trifluoro-2-hydroxypropyl)piperidin-4-yl)-1H-imidazol-5-yl)imidazo[1,2-b]pyridazin-2-yl)isonicotinamide]	0.296	0.796
O=C(Nc1cn2nc(-c3c(-c4ccc(F)cc4)ncn3C3CCN(CCC(F)(F)F)CC3)ccc2n1)c1cc(F)nc(F)c1 [Compound 92, 2,6-difluoro-N-(6-(4-(4-fluorophenyl)-1-(1-(3,3,3-trifluoropropyl)piperidin-4-yl)-1H-imidazol-5-yl)imidazo[1,2-b]pyridazin-2-yl)isonicotinamide]	1.45	7.88
O=C(Nc1cn2nc(-c3c(-c4ccc(F)cc4)ncn3C3CCN(C(=O)c4ccon4)CC3)ccc2n1)c1cc(F)nc(F)c1 [Compound 93, 2,6-difluoro-N-(6-(4-(4-fluorophenyl)-1-(1-(isoxazole-3-carbonyl)piperidin-4-yl)-1H-imidazol-5-yl)imidazo[1,2-b]pyridazin-2-yl)isonicotinamide]	0.393	2.47
Cc1nc(-c2cccnc2)sc1C(=O)Nc1cn2nc(-c3c(-c4ccc(F)cc4)ncn3C3CCN(CCO)CC3)ccc2n1 [Compound 97, N-(6-(4-(4-fluorophenyl)-1-(1-(2-hydroxyethyl)piperidin-4-yl)-1H-imidazol-5-yl)imidazo [1,2-b]pyridazin-2-yl)-4-methyl-2-(pyridin-3-yl) thiazole-5-carboxamide]	0.034	0.095
Cc1nc(-c2cccnc2)sc1C(=O)Nc1cn2nc(-c3c(-c4ccc(F)cc4)ncn3C3CCN(CCC(F)(F)F)CC3)ccc2n1 [Compound 98, N-(6-(4-(4-fluorophenyl)-1-(1-(3,3,3-trifluoropropyl)piperidin-4-yl)-1H-imidazol-5-yl)imidazo [1,2-b]pyridazin-2-yl)-4-methyl-2-(pyridin-3-yl)thiazole-5-carboxamide]	0.268	3.88
Cc1nc(-c2cccnc2)sc1C(=O)Nc1cn2nc(-c3c(-c4ccc(F)cc4)ncn3C3CCN(C[C@H](O)C(F)(F)F)CC3)ccc2n1 [Compound 99, (S)—N-(6-(4-(4-fluorophenyl)-1-(1-(3,3,3-trifluoro-2-hydroxypropyl)piperidin-4-yl)-1H-imidazol-5-yl)imidazo[1,2-b]pyridazin-2-yl)-4-methyl-2-(pyridin-3-yl)thiazole-5-carboxamide]	0.329	1.26
Cc1nc(-c2cccnc2)sc1C(=O)Nc1cn2nc(-c3c(-c4ccc(F)cc4)ncn3C3CCN(CC(N)=O)CC3)ccc2n1 [Compound 100, N-(6-(1-(1-(2-amino-2-oxoethyl)piperidin-4-yl)-4-(4-fluorophenyl)-1H-imidazol-5-yl)imidazo[1,2-b]pyridazin-2-yl)-4-methyl-2-(pyridin-3-yl) thiazole-5-carboxamide]	0.091	0.128
Cc1nc(-c2cccnc2)sc1C(=O)Nc1cn2nc(-c3c(-c4ccc(F)cc4)ncn3C3CCN(C(=O)c4ccon4)CC3)ccc2n1 [Compound 101, N-(6-(4-(4-fluorophenyl)-1-(1-(isoxazole-3-carbonyl)piperidin-4-yl)-1H-imidazol-5-yl)imidazo[1,2-b]pyridazin-2-yl)-4-methyl-2-(pyridin-3-yl)thiazole-5-carboxamide]	0.334	1.24
Cc1nc(-c2cccnc2)sc1C(=O)Nc1cn2nc(-c3c(-c4ccc(F)cc4)ncn3C3CCN(C(=O)CC(F)(F)F)CC3)ccc2n1 [Compound 102, N-(6-(4-(4-fluorophenyl)-1-(1-(3,3,3-trifluoropropanoyl)piperidin-4-yl)-1H-imidazol-5-yl)imidazo [1,2-b]pyridazin-2-yl)-4-methyl-2-(pyridin-3-yl)thiazole-5-carboxamide]	0.243	0.484
O=C(Nc1cn2nc(-c3c(-c4ccc(F)cc4)ncn3C3CCNCC3)ccc2n1)c1ccnc(N2CCOCC2)c1 [Compound 106, N-(6-(4-(4-fluorophenyl)-1-(piperidin-4-yl)-1H-imidazol-5-yl)imidazo[1,2-b]pyridazin-2-yl)-2-morpholinoisonicotinamide]	0.732	3.12
O=C(Nc1cn2nc(-c3c(-c4ccc(F)cc4)ncn3C3CCN(CCC(F)(F)F)CC3)ccc2n1)c1ccnc(N2CCOCC2)c1 [Compound 107, N-(6-(4-(4-fluorophenyl)-1-(1-(3,3,3-trifluoropropyl)piperidin-4-yl)-1H-imidazol-5-yl)imidazo[1,2-b]pyridazin-2-yl)-2-morpholinoisonicotinamide]	0.467	1.92
O=C(Nc1cn2nc(-c3c(-c4ccc(F)cc4)ncn3C3CCN(C(=O)CC(F)(F)F)CC3)ccc2n1)c1ccnc(N2CCOCC2)c1 [Compound 108, N-(6-(4-(4-fluorophenyl)-1-(1-(3,3,3-trifluoropropanoyl)piperidin-4-yl)-1H-imidazol-5-yl)imidazo[1,2-b]pyridazin-2-yl)-2-morpholinoisonicotinamide]	0.306	3.3
CN1CCC(n2cnc(-c3ccc(F)cc3)c2-c2ccc3nc(NC(=O)c4ccnc5ccccc45)cn3n2)CC1 [Compound 110, N-(6-(4-(4-fluorophenyl)-1-(1-methylpiperidin-4-yl)-1H-imidazol-5-yl)imidazo[1,2-b]pyridazin-2-yl)quinoline-4-carboxamide]	0.65	3.27
NC(=O)CN1CCC(n2cnc(-c3ccc(F)cc3)c2-c2ccc3nc(NC(=O)c4ccnc5ccccc45)cn3n2)CC1 [Compound 112, N-(6-(1-(1-(2-amino-2-oxoethyl)piperidin-4-yl)-4-(4-fluorophenyl)-1H-imidazol-5-yl)imidazo[1,2-b]pyridazin-2-yl)quinoline-4-carboxamide]	0.494	0.886
N#CCCN1CCC(n2cnc(-c3ccc(F)cc3)c2-c2ccc3nc(NC(=O)c4ccnc5ccccc45)cn3n2)CC1 [Compound 113, N-(6-(1-(1-(2-cyanoethyl)piperidin-4-yl)-4-(4-fluorophenyl)-1H-imidazol-5-yl)imidazo[1,2-b]pyridazin-2-yl)quinoline-4-carboxamide]	0.438	1.51
O=C(Nc1cn2nc(-c3c(-c4ccc(F)cc4)ncn3C3CCN(CCC(F)(F)F)CC3)ccc2n1)c1cncs1 [Compound 115, N-(6-(4-(4-fluorophenyl)-1-(1-(3,3,3-trifluoropropyl)piperidin-4-yl)-1H-imidazol-5-yl)imidazo[1,2-b]pyridazin-2-yl)thiazole-5-carboxamide]	0.159	3.88
